{"source": "patent US20020137929A1", "about": "“1 - (3-heterocyclylphenyl) isothiourea, -isourea, -guanidine and -amidine herbicidal agents” (Intellectual Property Department, BASF Aktiengesellschaft, priority 1998, published 2002)", "key": {"ABUTH (Velvetleaf) [1]": {"system": "ABUTH (Velvetleaf)", "experiment": "Postemergence herbicidal evaluation", "assay_type": "in vivo, Abutilon theophrasti", "conditions": "postemergence", "in_short": "(§1)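 Two-week seedlings sprayed postemergence at 40 psi; formulation: 1:1 acetone/water, 0.5% TWEEN 20; application ≈0.0156–0.500 kg/ha. Greenhouse grow-out, then 0–9 visual scoring at 4–5 weeks.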"}, "SETVI (Foxtail, Green)": {"system": "SETVI (Foxtail, Green)", "experiment": "Postemergence herbicidal evaluation", "assay_type": "in vivo, Setaria viridis", "conditions": "postemergence", "in_short": "as §1"}, "[2]": {"system": "GLXMAW (Soybean, Williams)", "experiment": "Postemergence herbicidal evaluation", "assay_type": "in vivo, Glycine max, (L.) Merr. cv Williams", "conditions": "postemergence", "in_short": "as §1"}, "ZEAMX (Corn, Field)": {"system": "ZEAMX (Corn, Field)", "experiment": "Postemergence herbicidal evaluation", "assay_type": "in vivo, Zea mays", "conditions": "postemergence", "in_short": "as §1"}, "ABUTH (Velvetleaf) [3]": {"system": "ABUTH (Velvetleaf)", "experiment": "Preemergence herbicidal evaluation", "assay_type": "in vivo, Abutilon theophrasti", "conditions": "rated 4-5 weeks after treatment", "in_short": "(§2)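 Herbicidal effect scored visually, 0-9, at 4 to 5 weeks against a control; compound applied preemergence by aqueous acetone spray to seeded soil at about 0.0156 to 0.500 kg/ha.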"}, "AMBEL (Ragweed, Common)": {"system": "AMBEL (Ragweed, Common)", "experiment": "Preemergence herbicidal evaluation", "assay_type": "in vivo, Ambrosia artemisifolia", "conditions": "rated 4-5 weeks after treatment", "in_short": "as §2"}, "CASOB (Sicklepod)": {"system": "CASOB (Sicklepod)", "experiment": "Preemergence herbicidal evaluation", "assay_type": "in vivo, Cassia obtusifolia", "conditions": "rated 4-5 weeks after treatment", "in_short": "as §2"}, "ECHCG (Barnyardgrass)": {"system": "ECHCG (Barnyardgrass)", "experiment": "Preemergence herbicidal evaluation", "assay_type": "in vivo, Echinochloa crus-galli", "conditions": "rated 4-5 weeks after treatment", "in_short": "as §2"}, "[4]": {"system": "ECHORC (Watergrass (Calif.))", "experiment": "Preemergence weed control under flooded paddy conditions", "assay_type": "in vivo, Echinochloa oryzoides", "conditions": "rated 3-4 weeks after treatment", "in_short": "(§3)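 Herbicidal effect is scored visually on a 0-9 scale against an untreated control, three to four weeks after compounds are pipetted into the flood water (1.5 to 3 cm deep) over seeds planted in silt loam at 0.5 cm depth. Rates: about 0.0313 to 0.500 kg/ha.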"}, "CYPSE (Flatsedge)": {"system": "CYPSE (Flatsedge)", "experiment": "Preemergence weed control under flooded paddy conditions", "assay_type": "in vivo, Cyperus serotinus", "conditions": "rated 3-4 weeks after treatment", "in_short": "as §3"}, "[5]": {"system": "ECHORC (Watergrass (Calif.))", "experiment": "Postemergence weed control under flooded paddy conditions", "assay_type": "in vivo, Echinochloa oryzoides", "conditions": "postemergence weeds, 3-4 weeks after treatment", "in_short": "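Flood-water application, about 0.0313–0.500 kg/ha a.i. in aqueous/acetone 50/50 v/v; water depth 1.5–3 cm throughout. Weeds 3–5 cm, rice 1.5–2.5 leaf. Greenhouse; 0–9 visual rating vs control at 3–4 wk.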"}, "CYPIR (Rice Flatsedge)": {"system": "CYPIR (Rice Flatsedge)", "experiment": "Postemergence weed control under flooded paddy conditions", "assay_type": "in vivo, Cyperus iria", "conditions": "postemergence weeds, 3-4 weeks after treatment", "excerpt": "Results of herbicide evaluation are expressed on a rating scale (0-9). The scale is based upon a visual observation of plant stand, vigor, malformation, size, chlorosis and overall plant appearance as compared with a control.\nPlastic containers containing weeds which are 3 to 5 cm tall and rice seedlings at the 1.5 to 2.5 leaf stage are flooded with water. The water is maintained at 1.5 to 3 cm above the soil surface for the duration of the experiment. Test compounds are applied as aqueous/ acetone mixtures 50/50 v/v directly into the flood water to provide the equivalent of about 0.0313 to 0.500 kg/ha of active ingredient. The treated containers are placed on greenhouse benches and cared for in accordance with conventional greenhouse procedures. Three to four weeks after treatment, the test is terminated and each container is examined and herbicidal effect rated according to the rating system provided in Example 37. The compounds evaluated are reported by compound number given in Example 37."}}, "data": [{"smiles": "C=CCN1C(=O)CSC1=Nc1cc(N2C(=O)C3=C(CCCC3)C2=O)c(F)cc1Cl", "note": "[Compound 2, N-{5-[(3-allyl-4-oxo-2-thiazolidinylidene)amino]-4-chloro-2-fluorophenyl}-1-cyclohexene-1,2-dicarboximide]", "values": [{"measurement": "ABUTH herbicidal rating", "setting": "ABUTH (Velvetleaf) [1]; rate 0.0157 kg/ha", "result": 0.0}, {"measurement": "ABUTH herbicidal rating", "setting": "ABUTH (Velvetleaf) [1]; rate 0.0313 kg/ha", "result": 4.0}, {"measurement": "ABUTH herbicidal rating", "setting": "ABUTH (Velvetleaf) [1]; rate 0.0625 kg/ha", "result": 9.0}, {"measurement": "ABUTH herbicidal rating", "setting": "ABUTH (Velvetleaf) [1]; rate 0.1250 kg/ha", "result": 9.0}, {"measurement": "ABUTH herbicidal rating", "setting": "ABUTH (Velvetleaf) [1]; rate 0.2500 kg/ha", "result": 9.0}, {"measurement": "ABUTH herbicidal rating", "setting": "ABUTH (Velvetleaf) [1]; rate 0.5000 kg/ha", "result": 9.0}, {"measurement": "SETVI herbicidal rating", "setting": "SETVI (Foxtail, Green); rate 0.0157 kg/ha", "result": 0.0}, {"measurement": "SETVI herbicidal rating", "setting": "SETVI (Foxtail, Green); rate 0.0313 kg/ha", "result": 0.0}, {"measurement": "SETVI herbicidal rating", "setting": "SETVI (Foxtail, Green); rate 0.1250 kg/ha", "result": 0.0}, {"measurement": "SETVI herbicidal rating", "setting": "SETVI (Foxtail, Green); rate 0.2500 kg/ha", "result": 0.0}, {"measurement": "SETVI herbicidal rating", "setting": "SETVI (Foxtail, Green); rate 0.5000 kg/ha", "result": 0.0}, {"measurement": "GLXMAW herbicidal rating", "setting": "[2]; rate 0.0157 kg/ha", "result": 3.5}, {"measurement": "GLXMAW herbicidal rating", "setting": "[2]; rate 0.0313 kg/ha", "result": 3.5}, {"measurement": "GLXMAW herbicidal rating", "setting": "[2]; rate 0.0625 kg/ha", "result": 3.5}, {"measurement": "GLXMAW herbicidal rating", "setting": "[2]; rate 0.1250 kg/ha", "result": 3.0}, {"measurement": "GLXMAW herbicidal rating", "setting": "[2]; rate 0.2500 kg/ha", "result": 3.0}, {"measurement": "GLXMAW herbicidal rating", "setting": "[2]; rate 0.5000 kg/ha", "result": 3.0}, {"measurement": "ZEAMX herbicidal rating", "setting": "ZEAMX (Corn, Field); rate 0.0157 kg/ha", "result": 3.0}, {"measurement": "ZEAMX herbicidal rating", "setting": "ZEAMX (Corn, Field); rate 0.0313 kg/ha", "result": 3.0}, {"measurement": "ZEAMX herbicidal rating", "setting": "ZEAMX (Corn, Field); rate 0.0625 kg/ha", "result": 3.0}, {"measurement": "ZEAMX herbicidal rating", "setting": "ZEAMX (Corn, Field); rate 0.1250 kg/ha", "result": 3.5}, {"measurement": "ZEAMX herbicidal rating", "setting": "ZEAMX (Corn, Field); rate 0.2500 kg/ha", "result": 3.5}, {"measurement": "ZEAMX herbicidal rating", "setting": "ZEAMX (Corn, Field); rate 0.5000 kg/ha", "result": 4.0}, {"measurement": "ABUTH preemergence herbicidal rating", "setting": "ABUTH (Velvetleaf) [3]; rate 0.0313 kg/ha", "result": 0.0}, {"measurement": "ABUTH preemergence herbicidal rating", "setting": "ABUTH (Velvetleaf) [3]; rate 0.0625 kg/ha", "result": 0.0}, {"measurement": "ABUTH preemergence herbicidal rating", "setting": "ABUTH (Velvetleaf) [3]; rate 0.5000 kg/ha", "result": 4.0}, {"measurement": "AMBEL preemergence herbicidal rating", "setting": "AMBEL (Ragweed, Common); rate 0.0313 kg/ha", "result": 0.0}, {"measurement": "AMBEL preemergence herbicidal rating", "setting": "AMBEL (Ragweed, Common); rate 0.0625 kg/ha", "result": 0.0}, {"measurement": "AMBEL preemergence herbicidal rating", "setting": "AMBEL (Ragweed, Common); rate 0.1250 kg/ha", "result": 0.0}, {"measurement": "AMBEL preemergence herbicidal rating", "setting": "AMBEL (Ragweed, Common); rate 0.2500 kg/ha", "result": 0.0}, {"measurement": "AMBEL preemergence herbicidal rating", "setting": "AMBEL (Ragweed, Common); rate 0.5000 kg/ha", "result": 0.0}, {"measurement": "CASOB preemergence herbicidal rating", "setting": "CASOB (Sicklepod); rate 0.0313 kg/ha", "result": 2.0}, {"measurement": "CASOB preemergence herbicidal rating", "setting": "CASOB (Sicklepod); rate 0.0625 kg/ha", "result": 2.0}, {"measurement": "CASOB preemergence herbicidal rating", "setting": "CASOB (Sicklepod); rate 0.5000 kg/ha", "result": 2.0}, {"measurement": "ECHCG preemergence herbicidal rating", "setting": "ECHCG (Barnyardgrass); rate 0.0313 kg/ha", "result": 0.0}, {"measurement": "ECHCG preemergence herbicidal rating", "setting": "ECHCG (Barnyardgrass); rate 0.0625 kg/ha", "result": 0.0}, {"measurement": "ECHCG preemergence herbicidal rating", "setting": "ECHCG (Barnyardgrass); rate 0.1250 kg/ha", "result": 4.0}, {"measurement": "ECHCG preemergence herbicidal rating", "setting": "ECHCG (Barnyardgrass); rate 0.2500 kg/ha", "result": 0.0}, {"measurement": "ECHCG preemergence herbicidal rating", "setting": "ECHCG (Barnyardgrass); rate 0.5000 kg/ha", "result": 8.0}, {"measurement": "Herbicidal rating ECHORC", "setting": "[4]; 0.0313 kg/ha", "result": 2.0}, {"measurement": "Herbicidal rating ECHORC", "setting": "[4]; 0.0625 kg/ha", "result": 2.0}, {"measurement": "Herbicidal rating ECHORC", "setting": "[4]; 0.1250 kg/ha", "result": 7.0}, {"measurement": "Herbicidal rating ECHORC", "setting": "[4]; 0.2500 kg/ha", "result": 8.0}, {"measurement": "Herbicidal rating ECHORC", "setting": "[4]; 0.5000 kg/ha", "result": 9.0}, {"measurement": "Herbicidal rating CYPSE", "setting": "CYPSE (Flatsedge); 0.0313 kg/ha", "result": 0.0}, {"measurement": "Herbicidal rating CYPSE", "setting": "CYPSE (Flatsedge); 0.0625 kg/ha", "result": 0.0}, {"measurement": "Herbicidal rating CYPSE", "setting": "CYPSE (Flatsedge); 0.1250 kg/ha", "result": 0.0}, {"measurement": "Herbicidal rating CYPSE", "setting": "CYPSE (Flatsedge); 0.2500 kg/ha", "result": 0.0}, {"measurement": "Herbicidal rating CYPSE", "setting": "CYPSE (Flatsedge); 0.5000 kg/ha", "result": 0.0}, {"measurement": "Herbicidal rating ECHORC", "setting": "[5]; rate 0.0313 kg/ha", "result": 1.0}, {"measurement": "Herbicidal rating ECHORC", "setting": "[5]; rate 0.0625 kg/ha", "result": 1.0}, {"measurement": "Herbicidal rating ECHORC", "setting": "[5]; rate 0.1250 kg/ha", "result": 3.5}, {"measurement": "Herbicidal rating ECHORC", "setting": "[5]; rate 0.2500 kg/ha", "result": 4.0}, {"measurement": "Herbicidal rating ECHORC", "setting": "[5]; rate 0.5000 kg/ha", "result": 4.5}, {"measurement": "Herbicidal rating CYPIR", "setting": "CYPIR (Rice Flatsedge); rate 0.0313 kg/ha", "result": 0.0}, {"measurement": "Herbicidal rating CYPIR", "setting": "CYPIR (Rice Flatsedge); rate 0.0625 kg/ha", "result": 0.0}, {"measurement": "Herbicidal rating CYPIR", "setting": "CYPIR (Rice Flatsedge); rate 0.1250 kg/ha", "result": 0.0}, {"measurement": "Herbicidal rating CYPIR", "setting": "CYPIR (Rice Flatsedge); rate 0.2500 kg/ha", "result": 1.0}, {"measurement": "Herbicidal rating CYPIR", "setting": "CYPIR (Rice Flatsedge); rate 0.5000 kg/ha", "result": 4.0}]}]}
